System: not listed separately
Test: log P by HPLC on reversed-phase column (C 18), EEC Directive 79/831 Annex V.A8
Format: physicochemical
Details: 40° C., 0.1% aqueous formic acid and acetonitrile
Procedure: In table 1, the log P values were determined in accordance with EEC Directive 79/831 Annex V.A8 by HPLC (High Performance Liquid Chromatography) on a reversed-phase column (C 18), using the method described below: Temperature: 40° C.; Mobile phases: 0.1% aqueous formic acid and acetonitrile; linear gradient from 10% acetonitrile to 90% acetonitrile. Calibration was carried out using unbranched alkan-2-ones (comprising 3 to 16 carbon atoms) with known log P values (determination of the log P values by the retention times using linear interpolation between two successive alkanones). lambda-max-values were determined using UV-spectra from 200 nm to 400 nm and the peak values of the chromatographic signals.
`Cn1nc(C(F)F)c(C(=O)N2CCCCC2CCOCC2CC2)c1Cl` (stereo not drawn) [Example 34] gave a logP of 2.82.
For `Cn1nc(C(F)F)c(C(=S)N2CCCC2C23CC4CC(CC(C4)C2)C3)c1F` (stereo not drawn) [Example 52], the logP was 4.51.
Molecule `Cn1nc(C(F)F)c(C(=O)N2CCCCC2C(F)(F)F)c1F` (stereo not drawn) [Example 19] has a logP of 2.63.
Work on `Cn1cc(C(=O)N2CCCCC2CCOCC2CC2)c(C(F)F)n1` (stereo not drawn) [Example 33] yielded a logP of 2.32.
With `CCCCCCC1CCCN1C(=O)c1c(C(F)F)nn(C)c1Cl` (stereo not drawn) [Example 7] the logP was 3.94.
For `CCCCOCCC1CCCCN1C(=O)c1c(C(F)F)nn(C)c1Cl` (stereo not drawn) [Example 31], the logP was 3.35.
`Cn1cc(C(=O)N2CCCCC2CCOCCC2CCCCC2)c(C(F)F)n1` (stereo not drawn) [Example 42] showed a logP of 4.23.
Molecule `Cn1nc(C(F)F)c(C(=O)N2CCCC2CC2CC3CCC2C3)c1Cl` (stereo not drawn) [Example 50] has a logP of 3.99.
`CCCCCCC1CCCCN1C(=O)c1cn(C)nc1C(F)F` (stereo not drawn) [Example 20] showed a logP of 3.71.
`COCCCOCCC1CCCCN1C(=O)c1cn(C)nc1C(F)F` (stereo not drawn) [Example 41] showed a logP of 1.96.
In the case of `COCCCOCCC1CCCCN1C(=O)c1c(C(F)F)nn(C)c1F` (stereo not drawn) [Example 40], the logP is reported as 2.25.
For `COCCCC1CCCCN1C(=O)c1cn(C)nc1C(F)F` (stereo not drawn) [Example 45], the logP was 1.88.
In the case of `CCCOCCC1CCCCN1C(=O)c1c(C(F)F)nn(C)c1Cl` (stereo not drawn) [Example 28], the logP is reported as 2.90.
Molecule `CCCCOCCC1CCCCN1C(=O)c1c(C(F)F)nn(C)c1F` (stereo not drawn) [Example 32] has a logP of 3.19.
With `COCCCC1CCCCN1C(=O)c1c(C(F)F)nn(C)c1Cl` (stereo not drawn) [Example 46] the logP was 2.33.
`Cn1nc(C(F)F)c(C(=O)N2CCCCC2C(F)(F)F)c1Cl` (stereo not drawn) [Example 18] gave a logP of 2.80.
`Cn1nc(C(F)F)c(C(=O)N2CCCCC2C2CCCCC2)c1Cl` (stereo not drawn) [Example 23] showed a logP of 3.85.
With `Cn1nc(C(F)F)c(C(=O)N2CCCCC2CCOCCC2CCCCC2)c1Cl` (stereo not drawn) [Example 43] the logP was 4.87.
Work on `Cn1cc(C(=O)N2CCCC2C23CC4CC(CC(C4)C2)C3)c(C(F)F)n1` (stereo not drawn) [Example 12] yielded a logP of 3.89.
Molecule `Cn1nc(C(F)F)c(C(=O)N2CCCC2C23CC4CC(CC(C4)C2)C3)c1Cl` (stereo not drawn) [Example 13] has a logP of 4.67.
`CCCCCCC1CCCCN1C(=O)c1c(C(F)F)nn(C)c1F` (stereo not drawn) [Example 22] showed a logP of 4.18.
Work on `Cn1cc(C(=O)N2CCCCC2CCOCC2CCC2)c(C(F)F)n1` (stereo not drawn) [Example 38] yielded a logP of 2.92.
Work on `CCCOCCC1CCCCN1C(=O)c1cn(C)nc1C(F)F` (stereo not drawn) [Example 27] yielded a logP of 2.39.
With `Cn1nc(C(F)F)c(C(=O)N2CCCC2C(F)(F)F)c1Cl` (stereo not drawn) [Example 1] the logP was 2.39.
Molecule `Cn1nc(C(F)F)c(C(=O)N2CCCC2C(F)(F)F)c1F` (stereo not drawn) [Example 2] has a logP of 2.25.
Work on `CCCOCCC1CCCCN1C(=O)c1c(C(F)F)nn(C)c1F` (stereo not drawn) [Example 29] yielded a logP of 2.73.
`COCCCOCCC1CCCCN1C(=O)c1c(C(F)F)nn(C)c1Cl` (stereo not drawn) [Example 39] showed a logP of 2.39.
For `Cn1nc(C(F)F)c(C(=S)N2CCCC2CC2CCCCC2)c1F` (stereo not drawn) [Example 51], the logP was 3.96.

System: Pyrenophora teres
Test: In vivo preventive test on Pyrenophora teres (barley)
Details: 500 ppm of active ingredient, evaluated 7-9 days after inoculation
Procedure: In Vivo Preventive Test on Pyrenophora teres (Barley) • Solvent: 49 parts by weight of N,N-dimethylformamide • Emulsifier: 1 part by weight of alkylaryl polyglycol ether To produce a suitable preparation of active compound, 1 part by weight of active compound is mixed with the stated amounts of solvent and emulsifier, and the concentrate is diluted with water to the desired concentration. To test for preventive activity, young plants are sprayed with the preparation of active compound at the stated rate of application. One day after this treatment, the plants are inoculated with an aqueous spore suspension of Pyrenophora teres. The plants remain for 48 hours in an incubation cabinet at 22° C. and a relative atmospheric humidity of 100%. Then the plants are placed in a greenhouse at a temperature of approximately 20° C. and a relative atmospheric humidity of approximately 80%. The test is evaluated 7-9 days after the inoculation. 0% means an efficacy which corresponds to that of the untreated control while an efficacy of 100% means that no disease is observed.
With `Cn1nc(C(F)F)c(C(=O)N2CCCCC2CCOCC2CC2)c1Cl` (stereo not drawn) [Example 34] the Efficacy was 94%.
`Cn1nc(C(F)F)c(C(=O)N2CCCCC2C(F)(F)F)c1F` (stereo not drawn) [Example 19] showed an Efficacy of 94%.
`Cn1cc(C(=O)N2CCCCC2CCOCC2CC2)c(C(F)F)n1` (stereo not drawn) [Example 33] showed an Efficacy of 94%.
Work on `CCCCCCC1CCCN1C(=O)c1c(C(F)F)nn(C)c1Cl` (stereo not drawn) [Example 7] yielded an Efficacy of 100%.
Molecule `CCCCOCCC1CCCCN1C(=O)c1c(C(F)F)nn(C)c1Cl` (stereo not drawn) [Example 31] has an Efficacy of 90%.
`Cn1cc(C(=O)N2CCCCC2CCOCCC2CCCCC2)c(C(F)F)n1` (stereo not drawn) [Example 42] gave an Efficacy of 95%.
For `Cn1nc(C(F)F)c(C(=O)N2CCCC2CC2CC3CCC2C3)c1Cl` (stereo not drawn) [Example 50], the Efficacy was 100%.
`CCCCCCC1CCCCN1C(=O)c1cn(C)nc1C(F)F` (stereo not drawn) [Example 20] showed an Efficacy of 100%.
With `COCCCOCCC1CCCCN1C(=O)c1cn(C)nc1C(F)F` (stereo not drawn) [Example 41] the Efficacy was 70%.
For `COCCCOCCC1CCCCN1C(=O)c1c(C(F)F)nn(C)c1F` (stereo not drawn) [Example 40], the Efficacy was 95%.
`CCCCOCCC1CCCCN1C(=O)c1c(C(F)F)nn(C)c1F` (stereo not drawn) [Example 32] showed an Efficacy of 100%.
Work on `Cn1nc(C(F)F)c(C(=O)N2CCCCC2C(F)(F)F)c1Cl` (stereo not drawn) [Example 18] yielded an Efficacy of 89%.
In the case of `Cn1nc(C(F)F)c(C(=O)N2CCCCC2C2CCCCC2)c1Cl` (stereo not drawn) [Example 23], the Efficacy is reported as 100%.
With `Cn1nc(C(F)F)c(C(=O)N2CCCCC2CCOCCC2CCCCC2)c1Cl` (stereo not drawn) [Example 43] the Efficacy was 90%.
`Cn1cc(C(=O)N2CCCC2C23CC4CC(CC(C4)C2)C3)c(C(F)F)n1` (stereo not drawn) [Example 12] showed an Efficacy of 100%.
`Cn1nc(C(F)F)c(C(=O)N2CCCC2C23CC4CC(CC(C4)C2)C3)c1Cl` (stereo not drawn) [Example 13] gave an Efficacy of 100%.
`CCCCCCC1CCCCN1C(=O)c1c(C(F)F)nn(C)c1F` (stereo not drawn) [Example 22] gave an Efficacy of 100%.
In the case of `Cn1cc(C(=O)N2CCCCC2CCOCC2CCC2)c(C(F)F)n1` (stereo not drawn) [Example 38], the Efficacy is reported as 89%.
For `Cn1nc(C(F)F)c(C(=O)N2CCCC2C(F)(F)F)c1Cl` (stereo not drawn) [Example 1], the Efficacy was 100%.
`Cn1nc(C(F)F)c(C(=O)N2CCCC2C(F)(F)F)c1F` (stereo not drawn) [Example 2] gave an Efficacy of 100%.
With `CCCOCCC1CCCCN1C(=O)c1c(C(F)F)nn(C)c1F` (stereo not drawn) [Example 29] the Efficacy was 100%.

System: Alternaria solani
Test: In vivo preventive test on Alternaria solani (tomato)
Details: 100 ppm of active ingredient, evaluated 7 days after inoculation
Procedure: In Vivo Preventive Test on Alternaria solani (Tomato) • Solvent: 49 parts by weight of N,N-dimethylformamide • Emulsifier: 1 part by weight of alkylarylpolyglycolether To produce a suitable preparation of active compound, 1 part by weight of active compound is mixed with the stated amounts of solvent and emulsifier, and the concentrate is diluted with water to the desired concentration. To test for preventive activity, young plants are sprayed with the preparation of active compound at the stated rate of application. One day after this treatment, the plants are inoculated with an aqueous spore suspension of Alternaria solani. The plants remain for one day in an incubation cabinet at approximately 22° C. and a relative atmospheric humidity of 100%. Then the plants are placed in an incubation cabinet at approximately 20° C. and a relative atmospheric humidity of 96%. The test is evaluated 7 days after the inoculation. 0% means an efficacy which corresponds to that of the untreated control while an efficacy of 100% means that no disease is observed.
`CCCCCCC1CCCCN1C(=O)c1cn(C)nc1C(F)F` (stereo not drawn) [Example 20] gave an Efficacy of 94%.
Molecule `Cn1cc(C(=O)N2CCCC2C23CC4CC(CC(C4)C2)C3)c(C(F)F)n1` (stereo not drawn) [Example 12] has an Efficacy of 89%.

Same assay, conditions: 500 ppm of active ingredient, evaluated 7 days after inoculation
With `CCCCCCC1CCCN1C(=O)c1c(C(F)F)nn(C)c1Cl` (stereo not drawn) [Example 7] the Efficacy was 94%.
For `CCCCOCCC1CCCCN1C(=O)c1c(C(F)F)nn(C)c1Cl` (stereo not drawn) [Example 31], the Efficacy was 89%.
Work on `Cn1cc(C(=O)N2CCCCC2CCOCCC2CCCCC2)c(C(F)F)n1` (stereo not drawn) [Example 42] yielded an Efficacy of 78%.
Work on `Cn1nc(C(F)F)c(C(=O)N2CCCC2CC2CC3CCC2C3)c1Cl` (stereo not drawn) [Example 50] yielded an Efficacy of 88%.
With `CCCCCCC1CCCCN1C(=O)c1cn(C)nc1C(F)F` (stereo not drawn) [Example 20] the Efficacy was 100%.
Work on `COCCCOCCC1CCCCN1C(=O)c1c(C(F)F)nn(C)c1F` (stereo not drawn) [Example 40] yielded an Efficacy of 94%.
In the case of `CCCCOCCC1CCCCN1C(=O)c1c(C(F)F)nn(C)c1F` (stereo not drawn) [Example 32], the Efficacy is reported as 94%.
Molecule `Cn1nc(C(F)F)c(C(=O)N2CCCCC2C2CCCCC2)c1Cl` (stereo not drawn) [Example 23] has an Efficacy of 88%.
For `Cn1cc(C(=O)N2CCCC2C23CC4CC(CC(C4)C2)C3)c(C(F)F)n1` (stereo not drawn) [Example 12], the Efficacy was 94%.
`Cn1nc(C(F)F)c(C(=O)N2CCCC2C23CC4CC(CC(C4)C2)C3)c1Cl` (stereo not drawn) [Example 13] showed an Efficacy of 94%.
`CCCCCCC1CCCCN1C(=O)c1c(C(F)F)nn(C)c1F` (stereo not drawn) [Example 22] gave an Efficacy of 100%.
In the case of `CCCOCCC1CCCCN1C(=O)c1c(C(F)F)nn(C)c1F` (stereo not drawn) [Example 29], the Efficacy is reported as 94%.

From patent US9357778B2, “N-acyl-2-(cyclo)alkypyrrolidines and piperidines useful as fungicides” (BAYER CROPSCIENCE AG, priority 2012, dated 2016)
